Measurements: ChEMBL document CHEMBL1158909, “A New Brominated Diphenyl Ether from a Philippine Dysidea Species” (J Nat Prod, 1990)
Active and inactive are the calls of the source. The rule behind the calls is not given here.

Key:
Bacillus subtilis = experiment: Antimicrobial activity against Bacillus subtilis; format: functional, organism-based
Staphylococcus aureus = experiment: Antimicrobial activity against Staphylococcus aureus; format: functional, organism-based

Row | SMILES | Activity (Bacillus subtilis) | Activity (Staphylococcus aureus)
1 | COc1c(Br)c(Br)c(Br)c(Br)c1Oc1ccccc1Br | inactive | inactive
2 | Oc1c(Br)c(Br)c(Br)c(Br)c1Oc1ccccc1Br | Active | Active
3 | Oc1c(Br)c(Br)c(Br)c(Br)c1Oc1ccc(Br)cc1Br | Active | Active
4 | COc1c(Br)c(Br)c(Br)c(Br)c1Oc1ccc(Br)cc1Br | inactive | inactive
